Measurements: PMC12559140 (Molecular Neurobiology, 2025)
“And” between values parts separate entries of the source, which are not always exact repeats. Equal values may be shown once. “Also recorded” adds a separate entry of the source. Read-outs that look alike come from different tables or passages of the source.

Assays:
SH-SY5Y cells = conditions: cited from earlier work
AChE [1] = biological target: T1, AChE (Homo sapiens, UniProt P22303); experiment: biochemical
Method: The inhibition of AChE activity in vitro was evaluated following the methodology outlined by Ellman et al., with some modifications implemented. […] The enzyme activity was expressed as a percentage relative to a control assay conducted without any inhibitor. The percentage inhibition of AChE activity was determined by comparing the absorbance values with those of the negative control, using the following equation:
AChE inhibition % = ((A0 − A1)/A0) × 100.
In this equation, A0 represents the absorbance of the control lacking the sample, while A1 indicates the absorbance of the sample tested.
Dose–response curves were generated and analyzed using GraphPad Prism version 8.0, applying a sigmoidal dose–response model with variable slope (four-parameter logistic regression). IC50 values were derived from the fitted curves and are expressed in micromolar (µM).

[2] = Cell viability (MTT), drugs alone; conditions: human
Method: (§1) Cells were cultured under standard conditions and used for experiments between passages 5 and 20 to maintain phenotypic consistency and avoid passage-related variability. To ensure the validity of the experimental data and avoid confounding effects, the cell line was routinely tested for Mycoplasma contamination using a PCR-based Mycoplasma detection kit (MycoFluor™ Mycoplasma Detection Kit, Thermo Fisher Scientific). […] Differentiated cells were plated at 1.0 × 10^4 cell/cm^2 confluency and treated with retinoic acid (RA) (R2625-50MG, Sigma Aldrich) at a 10 µM concentration in DMEM/F12 1% FBS for 6 days with RA pulses on every other day. The (d)-SH-SY5Y cells with acquired neuronal properties were used in our experiments involving toxin application and drug treatments.
(§2) (d)-SH-SY5Y cells were cultured in collagen-coated 96-well plates (1.0 × 10^4 cell/well). […] The appropriate dose and time for H2O2 used in our study were determined according to the findings obtained in a preliminary study. Data are expressed as a percentage of cell viability compared to control cultures.

cleaved caspase-3 = experiment: Cleaved caspase-3 ELISA in H2O2-treated cells; type: cell-based, human; conditions: 250 μM H2O2 alone (vs untreated) or with CNI (vs H2O2 alone), 24 h, n = 2
Method: The quantification of cleaved caspase-3 levels in cell lysates was performed using a commercially available human cleaved caspase-3 ELISA kit (E6970HU, BT Lab), according to the manufacturer’s instructions. SH-SY5Y cells were seeded in collagen-coated 6-well plates (1.0 × 10^5 cell/well) and differentiated. Cells were exposed to 250 μM H2O2 in the presence or absence of CNI compounds for 24 h. Following treatment, cells were collected, diluted with PBS, and destroyed by multiple freeze–thaw cycles, both treated and untreated. The levels of cleaved caspase-3 in the cell lysates were measured in the order recommended by the manufacturer. The BCA assay (44,132, Expedeon) was used to compare the total protein contents in treated and untreated cells.

AChE [3] = biological target: T1, AChE; experiment: Cellular AChE activity (ELISA); type: cell-based; set-up: To extract the total protein from the treated (d)-SH-SY5Y cells; endogenous in cells; host or cells: differentiated SH-SY5Y (human neuroblastoma); conditions: (d)-SH-SY5Y
Method: SH-SY5Y cells were cultivated on collagen-coated 6-well plates at a density of 1.0 × 10^5 cells/well. […] To extract the total protein from the treated (d)-SH-SY5Y cells, the cultures were rinsed twice with cold phosphate-buffered saline (PBS), followed by scraping to collect the cells. The resulting cell suspension was transferred to 1.5 mL tubes, which were then centrifuged at 10,000 × g for 5 min at 4 °C. The supernatant was carefully discarded, and the cell pellets were lysed using RIPA buffer. The total protein concentration present in the extracts was quantified using the Bicinchoninic Acid (BCA) assay. Any remaining protein was stored at − 80 °C until the time of enzymatic analysis. Relative AChE activity was determined using an equal amount of total protein and employing an Enzyme-Linked Immunosorbent Assay (ELISA) (Human AchE (Acetylcholinesterase) Kit, ELK4614-96 T), following the manufacturer’s guidelines.

(d)-SH-SY5Y cells [4] = experiment: Cell viability (MTT), H2O2 alone or co-treatment with H2O2 and drugs; conditions: for cell viability compared to H2O2 alone: 10 μM drug + 250 µM H2O2, 24 h
Method: as §1, §2

AChE mRNA = AChE mRNA expression by qRT-PCR; type: cell-based; conditions: 250 µM H2O2 alone (vs control) or with 0.1 µM drug (vs H2O2 alone), 24 h, 2^−ΔΔCt, GAPDH
Method: SH-SY5Y cells were cultivated on collagen-coated 6-well plates at a density of 1.0 × 10^5 cells/well. […]. The purity and concentration of the isolated RNA were assessed by measuring absorbance at 260 nm and 280 nm. cDNA was synthesized from 1 μg of total RNA using the OneScript Plus cDNA Synthesis Kit (G236, Abmgood). Subsequent to cDNA synthesis, quantitative real-time PCR (qRT-PCR) was conducted on a Roche Light Cycler 96 real-time PCR System utilizing the SYBR Green PCR Kit BlasTaq 2X qPCR MasterMix (G891, Abmgood) according to established protocols. All amplification reactions for each sample were performed in triplicate, and the experiments were repeated at least three times. The relative mRNA expression levels were quantified using the 2^−ΔΔCt method, normalizing the data against glyceraldehyde-3-phosphate dehydrogenase (GAPDH). Primer sequences are listed as follows: GAPDH forward, 5′-[…]-3′ and reverse, 5′-[…]-3′; AChE forward, 5′-[…]-3′ and reverse, 5′-[…]-3′.

(d)-SH-SY5Y cells [5] = experiment: Neurite analysis by microscopy (NeuronJ/ImageJ); type: cell-based, human; conditions: 250 µM H2O2 alone or with 0.1 µM drug
Method: SH-SY5Y cells were cultivated on collagen-coated 6-well plates at a density of 1.0 × 10^5 cells/well. Following the differentiation and treatments, microscopic examination of the cell groups was assessed using an inverted microscope (Zeiss Axio) at × 20 objective. Images were taken with multiple independent images for an individual treatment. Images were analyzed for neurite lengths and the number of homogeneous neurites per cell by NeuronJ of ImageJ software; soma size was determined by the Neurphology plugin of ImageJ [46]. Cells with cell extensions longer than twice the cell body diameter were considered neurite-bearing cells. 100 cells were counted from 10 different areas selected to determine neurite density (number of neurites per cell) and neurite length for each sample. The data were expressed as the mean ± SEM from three independent experiments.

(d)-SH-SY5Y cells [6] = experiment: Cell viability (MTT), drugs alone; conditions: 0.01–10 μM, (d)-SH-SY5Y, no oxidative stress
Method: as §1, §2

[7] = 0.1 μM drug + 250 µM H2O2, 24 h, vs H2O2 alone

T1 sequence (P22303 32-614): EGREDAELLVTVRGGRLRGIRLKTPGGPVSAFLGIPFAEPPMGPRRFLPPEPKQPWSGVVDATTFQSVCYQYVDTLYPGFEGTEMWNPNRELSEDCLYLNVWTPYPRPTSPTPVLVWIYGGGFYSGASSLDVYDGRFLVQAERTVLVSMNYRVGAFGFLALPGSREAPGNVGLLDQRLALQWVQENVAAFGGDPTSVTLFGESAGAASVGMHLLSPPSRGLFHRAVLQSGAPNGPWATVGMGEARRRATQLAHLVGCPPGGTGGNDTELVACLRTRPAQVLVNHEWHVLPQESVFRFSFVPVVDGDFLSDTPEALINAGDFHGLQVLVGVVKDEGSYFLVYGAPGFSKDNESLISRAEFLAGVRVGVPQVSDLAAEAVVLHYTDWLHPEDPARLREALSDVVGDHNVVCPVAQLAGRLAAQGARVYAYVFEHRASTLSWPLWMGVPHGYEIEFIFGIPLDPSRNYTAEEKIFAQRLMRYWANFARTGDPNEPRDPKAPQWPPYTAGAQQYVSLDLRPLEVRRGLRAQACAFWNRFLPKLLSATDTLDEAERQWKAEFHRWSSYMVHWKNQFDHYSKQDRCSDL

| Structure (SMILES) | viability at 24 h, 1 µM [2] | viability at 24 h, 10 µM [2] | caspase-3 levels (cleaved caspase-3) | protective effect on cell viability against H2O2 ((d)-SH-SY5Y cells [4]; [7]) | cell viability compared to H2O2 alone ((d)-SH-SY5Y cells [4]) | AChE mRNA expression (AChE mRNA) | Neurite index (neurite/cell) ((d)-SH-SY5Y cells [5]) | Neurite length ((d)-SH-SY5Y cells [5]) | IC50 (AChE [1]) | other results |
| --- | --- | --- | --- | --- | --- | --- | --- | --- | --- | --- |
| COc1ccc2c3c1O[C@H]1C[C@@H](O)C=C[C@@]31CCN(C)C2 [Gal, Galantamine] |  |  |  |  |  |  |  |  |  | reduction in viability (SH-SY5Y cells; 1.25 mg/mL): 17%; CC50 (SH-SY5Y cells): ~5000 µM; concentrations at which cell viability remained comparable to controls (SH-SY5Y cells): up to 10 μM; concentrations with significant reductions in viability (SH-SY5Y cells): ≥ 100 µM; concentrations with no cytotoxic effect (SH-SY5Y cells; differentiated SH-SY5Y cells): up to 50 μM |
| C=C/C=C/C[C@@H](C)[C@@H](O)[C@H]1C(=O)N[C@@H](CC)C(=O)N(C)CC(=O)N(C)[C@@H](CC(C)C)C(=O)N[C@@H](C(C)C)C(=O)N(C)[C@@H](CC(C)C)C(=O)N[C@@H](C)C(=O)N[C@H](C)C(=O)N(C)[C@@H](CC(C)C)C(=O)N(C)[C@@H](CC(C)C)C(=O)N(C)[C@@H](C(C)C)C(=O)N1C [Voc, Voclosporin] | 75.5 ± 4.8% | 62.1 ± 3.6% | significantly attenuated this increase | significantly increasing cell viability compared to the H2O2-only group | further decrease in cell viability; also recorded: significantly reduced cell viability | significantly reduced AChE mRNA levels | 1.3 ± 0.3^#p=0.02 neurite/cell | 45.4 ± 5.5^#p=0.04 μm |  | AChE inhibitory effect compared to galantamine (AChE [1]; 0.01 µM): higher AChE inhibitory effect compared to galantamine; IC50 (AChE [1]; read-out: IC50 against AChE, recombinant human AChE, Ellman method, 0.01–10 µM, four-parameter fit): 0.004 ± 0.0002 µM; AChE activity (AChE [3]; 0.1 μM drug + 250 μM H2O2, 24 h): 96.3 ± 2.3% |
| CC[C@@H]1/C=C(\C)C[C@H](C)C[C@H](OC)[C@H]2O[C@@](O)(C(=O)C(=O)N3CCCC[C@H]3C(=O)O[C@H](/C(C)=C/[C@@H]3CC[C@H](Cl)[C@H](OC)C3)[C@H](C)[C@@H](O)CC1=O)[C@H](C)C[C@@H]2OC [Pim, Pimecrolimus] |  |  | significantly attenuated this increase |  |  | significantly reduced AChE mRNA levels | 1.1 ± 0.3 neurite/cell | 39.8 ± 5.7 μm | 2.15 ± 0.1 µM | cytotoxicity of drug alone ((d)-SH-SY5Y cells [6]): did not show detectable cytotoxicity; protective effect on cell viability against H2O2 ((d)-SH-SY5Y cells [4]; 1 µM drug + 250 µM H2O2, 24 h): best protected cell viability |
| OO [H2O2] |  |  | significant increase in caspase-3 levels |  |  | significant upregulation of AChE mRNA expression | 0.8 ± 0.2 neurite/cell and 0.8 ± 0.2*^p=0.001 neurite/cell | 39.6 ± 6.3 μm and 39.6 ± 6.3*^p=0.001 μm |  | increase of AChE activity compared to the control (AChE [3]; 250 μM H2O2 alone, 24 h): 1.45 fold; average cell viability ((d)-SH-SY5Y cells [4]; 250 µM H2O2 alone, 24 h, compared to the control group): 57.8 ± 5% |
| C=CC[C@@H]1/C=C(\C)C[C@H](C)C[C@H](OC)[C@H]2O[C@@](O)(C(=O)C(=O)N3CCCC[C@H]3C(=O)O[C@H](/C(C)=C/[C@@H]3CC[C@@H](O)[C@H](OC)C3)[C@H](C)[C@@H](O)CC1=O)[C@H](C)C[C@@H]2OC [Tac, Tacrolimus] | 55.2 ± 2.5% | 50.1 ± 2% | did not significantly modulate caspase-3 expression | not statistically significant | significantly reduced cell viability | significantly reduced AChE mRNA levels | 1.2 ± 0.1 neurite/cell | 34.5 ± 3.5 μm | 4.24 ± 0.1 µM |  |
